From ChEMBL document CHEMBL1155774, “Pharmacokinetics, safety, and hydrolysis of oral pyrroloquinazolinediamines administered in single and multiple doses in rats” (Antimicrob Agents Chemother, 2007)

Experiments:
Rattus norvegicus [1] = test: AUC in intragastrically dosed Sprague-Dawley rat assessed as bisacetamide pyrroloquinazolinediamine level at 95 umol/kg administered as single dose; assay type: ADME, organism-based, Plasma; details: in vivo, po
Rattus norvegicus [2] = test: Anorexic toxicity in intragastrically dosed Sprague-Dawley rat assessed as ratio of body weight change to day of weight change at 195 umol/kg administered as single dose after 14 days; assay type: organism-based; details: in vivo, po, 336 h
Rattus norvegicus [3] = test: Cmax in intragastrically dosed Sprague-Dawley rat assessed as pyrroloquinazolinediamine level at 95 umol/kg administered as single dose; assay type: ADME, organism-based; parameters: dose 95 umol/kg, route intragastric; details: in vivo, po
Rattus norvegicus [4] = test: Total AUC in intragastrically dosed Sprague-Dawley rat assessed as pyrroloquinazolinediamine level at 47.6 umol/kg administered daily for 3 days measured on day 3; assay type: ADME, organism-based; parameters: dose 47.6 umol/kg, route intragastric, time AUCmax; details: in vivo, po, 72 h
Rattus norvegicus [5] = test: Elimination half life in intragastrically dosed Sprague-Dawley rat assessed as bisacetamide pyrroloquinazolinediamine level at 95 umol/kg administered as single dose; assay type: ADME, organism-based; details: in vivo, po
Rattus norvegicus [6] = test: Anorexic toxicity in intragastrically dosed Sprague-Dawley rat assessed as ratio of body weight change to day of weight change at 1170 umol/kg administered as single dose after 14 days; assay type: organism-based; details: in vivo, po, 336 h
Rattus norvegicus [7] = test: Cmax in intragastrically dosed Sprague-Dawley rat assessed as pyrroloquinazolinediamine level at 47.6 umol/kg administered daily for 3 days measured on day 1; assay type: ADME, organism-based; parameters: dose 47.6 umol/kg, route intragastric; details: in vivo, po, 72 h
Rattus norvegicus [8] = test: Bioavailability in intragastrically dosed Sprague-Dawley rat assessed as pyrroloquinazolinediamine level at 47.6 umol/kg administered daily for 3 days measured on day 3; assay type: ADME, organism-based; details: in vivo, po, 72 h
[9] = Toxicity in intragastrically dosed Sprague-Dawley rat assessed as maximum tolerated dose; assay type: organism-based; details: in vivo, po
Rattus norvegicus [10] = test: AUC (0 to infinity) in intragastrically dosed Sprague-Dawley rat assessed as pyrroloquinazolinediamine level at 47.6 umol/kg administered daily for 3 days measured on day 3; assay type: ADME, organism-based, Plasma; parameters: dose 47.6 umol/kg, time infinity, route intragastric; details: in vivo, po, 72 h
Rattus norvegicus [11] = test: Elimination half life in intragastrically dosed Sprague-Dawley rat assessed as pyrroloquinazolinediamine level at 47.6 umol/kg administered daily for 3 days measured on day 1; assay type: ADME, organism-based; details: in vivo, po, 72 h
Rattus norvegicus [12] = test: Anorexic toxicity in intragastrically dosed Sprague-Dawley rat assessed as ratio of body weight change to day of weight change at 780 umol/kg administered as single dose after 14 days; assay type: organism-based; details: in vivo, po, 336 h
Rattus norvegicus [13] = test: Anorexic toxicity in intragastrically dosed Sprague-Dawley rat assessed as ratio of body weight change to day of weight change at 11.9 umol/kg administered daily for 3 days measured after 14 days; assay type: organism-based; details: in vivo, po, 336 h
Rattus norvegicus [14] = test: Elimination half life in intragastrically dosed Sprague-Dawley rat assessed as pyrroloquinazolinediamine level at 95 umol/kg administered as single dose; assay type: ADME, organism-based; details: in vivo, po
Rattus norvegicus [15] = test: Tmax in intragastrically dosed Sprague-Dawley rat assessed as pyrroloquinazolinediamine level at 47.6 umol/kg administered daily for 3 days measured on day 3; assay type: ADME, organism-based; details: in vivo, po, 72 h
Rattus norvegicus [16] = test: Anorexic toxicity in intragastrically dosed Sprague-Dawley rat assessed as ratio of body weight change to day of weight change at 47.6 umol/kg administered daily for 3 days measured after 14 days; assay type: organism-based; details: in vivo, po, 336 h
Rattus norvegicus [17] = test: Anorexic toxicity in intragastrically dosed Sprague-Dawley rat assessed as ratio of body weight change to day of weight change after 14 days; assay type: organism-based; details: in vivo, po, 336 h
Rattus norvegicus [18] = test: Toxicity in intragastrically dosed Sprague-Dawley rat at 2340 umol/kg; assay type: organism-based; details: in vivo, po
Rattus norvegicus [19] = test: Anorexic toxicity in intragastrically dosed Sprague-Dawley rat assessed as ratio of body weight change to day of weight change at 1560 umol/kg administered as single dose after 14 days; assay type: organism-based; details: in vivo, po, 336 h
Rattus norvegicus [20] = test: Bioavailability in intragastrically dosed Sprague-Dawley rat assessed as pyrroloquinazolinediamine level at 47.6 umol/kg administered daily for 3 days measured on day 1; assay type: ADME, organism-based; details: in vivo, po, 72 h
Rattus norvegicus [21] = test: Cmax in intragastrically dosed Sprague-Dawley rat assessed as pyrroloquinazolinediamine level at 47.6 umol/kg administered daily for 3 days measured on day 3; assay type: ADME, organism-based; parameters: dose 47.6 umol/kg, route intragastric; details: in vivo, po, 72 h
Rattus norvegicus [22] = test: Tmax in intragastrically dosed Sprague-Dawley rat assessed as pyrroloquinazolinediamine level at 95 umol/kg administered as single dose; assay type: ADME, organism-based; details: in vivo, po
Plasma = test: Metabolic stability in Sprague-Dawley rat plasma assessed as formation of pyrroloquinazolinediamine after 30 mins; assay type: ADME, cell-free; details: 0.5 h
Rattus norvegicus [23] = test: Elimination half life in intragastrically dosed Sprague-Dawley rat assessed as monoacetamide pyrroloquinazolinediamine level at 95 umol/kg administered as single dose; assay type: ADME, organism-based; details: in vivo, po
Rattus norvegicus [24] = test: AUC (0 to infinity) in intragastrically dosed Sprague-Dawley rat assessed as pyrroloquinazolinediamine level at 95 umol/kg administered as single dose; assay type: ADME, organism-based, Plasma; parameters: dose 95 umol/kg, time infinity, route intragastric; details: in vivo, po
Rattus norvegicus [25] = test: Metabolic stability in intragastrically dosed Sprague-Dawley rat assessed as formation of pyrroloquinazolinediamine; assay type: ADME, organism-based; details: in vivo, po
Rattus norvegicus [26] = test: AUC in intragastrically dosed Sprague-Dawley rat assessed as monoacetamide pyrroloquinazolinediamine level at 95 umol/kg administered as single dose; assay type: ADME, organism-based, Plasma; details: in vivo, po
Rattus norvegicus [27] = test: Anorexic toxicity in intragastrically dosed Sprague-Dawley rat assessed as ratio of body weight change to day of weight change at 23.8 umol/kg administered daily for 3 days measured after 14 days; assay type: organism-based; details: in vivo, po, 336 h
Rattus norvegicus [28] = test: Tmax in intragastrically dosed Sprague-Dawley rat assessed as pyrroloquinazolinediamine level at 47.6 umol/kg administered daily for 3 days measured on day 1; assay type: ADME, organism-based; details: in vivo, po, 72 h
Rattus norvegicus [29] = test: Anorexic toxicity in intragastrically dosed Sprague-Dawley rat assessed as ratio of body weight change to day of weight change at 95 umol/kg administered daily for 3 days measured after 14 days; assay type: organism-based; details: in vivo, po, 336 h
Rattus norvegicus [30] = test: Bioavailability in intragastrically dosed Sprague-Dawley rat assessed as pyrroloquinazolinediamine level at 95 umol/kg administered as single dose; assay type: ADME, organism-based; details: in vivo, po
Rattus norvegicus [31] = test: AUC (0 to infinity) in intragastrically dosed Sprague-Dawley rat assessed as pyrroloquinazolinediamine level at 47.6 umol/kg administered daily for 3 days measured on day 1; assay type: ADME, organism-based, Plasma; parameters: dose 47.6 umol/kg, time infinity, route intragastric; details: in vivo, po, 72 h
Rattus norvegicus [32] = test: Anorexic toxicity in intragastrically dosed Sprague-Dawley rat assessed as ratio of body weight change to day of weight change at 190 umol/kg administered daily for 3 days measured after 14 days; assay type: organism-based; details: in vivo, po, 336 h
Rattus norvegicus [33] = test: Elimination half life in intragastrically dosed Sprague-Dawley rat assessed as pyrroloquinazolinediamine level at 47.6 umol/kg administered daily for 3 days measured on day 3; assay type: ADME, organism-based; details: in vivo, po, 72 h
Rattus norvegicus [34] = test: Anorexic toxicity in intragastrically dosed Sprague-Dawley rat assessed as ratio of body weight change to day of weight change at 2340 umol/kg administered as single dose after 14 days; assay type: organism-based; details: in vivo, po, 336 h
Rattus norvegicus [35] = test: Toxicity in intragastrically dosed Sprague-Dawley rat assessed as mortality at 2340 umol/kg administered as single dose after 14 days; assay type: organism-based; details: in vivo, po, 336 h
[36] = Toxicity in intragastrically dosed Sprague-Dawley rat; assay type: organism-based; details: in vivo, po

CC(=O)N(C(C)=O)c1nc(N(C(C)=O)C(C)=O)c2c(ccc3c2ccn3Cc2ccccc2C(F)(F)F)n1
AUC (Rattus norvegicus [1]): 24.9 ng·h/mL
Ratio (Rattus norvegicus [2]): 2.55
Cmax (Rattus norvegicus [3]): 60.5 ng/mL
AUC (Rattus norvegicus [4]): 1903.5 ng·h/mL
t1/2 (Rattus norvegicus [5]): 12.64 h
Ratio (Rattus norvegicus [6]): 2.76
Cmax (Rattus norvegicus [7]): 31.23 ng/mL
F (Rattus norvegicus [8]): 26.96%
MTD [9]: 2340 µmol/kg
AUC (Rattus norvegicus [10]): 1250.1 ng·h/mL
t1/2 (Rattus norvegicus [11]): 12.86 h
Ratio (Rattus norvegicus [12]): 2.47
Ratio (Rattus norvegicus [13]): 2.46
t1/2 (Rattus norvegicus [14]): 13.2 h
Tmax (Rattus norvegicus [15]): 5.67 h
Ratio (Rattus norvegicus [16]): 2.06
ID50 (Rattus norvegicus [17]): 140.43 µmol/kg
Activity (Rattus norvegicus [18]): Non-toxic
Ratio (Rattus norvegicus [19]): 2.08
F (Rattus norvegicus [20]): 16.49%
Cmax (Rattus norvegicus [21]): 30.84 ng/mL
Tmax (Rattus norvegicus [22]): 5.33 h
Activity (Plasma): 49%
t1/2 (Rattus norvegicus [23]): 13.16 h
AUC (Rattus norvegicus [24]): 1047.3 ng·h/mL
Activity (Rattus norvegicus [25]): 84%
AUC (Rattus norvegicus [26]): 176.5 ng·h/mL
Ratio (Rattus norvegicus [27]): 2.61
Tmax (Rattus norvegicus [28]): 7 h
Ratio (Rattus norvegicus [29]): 1.18
F (Rattus norvegicus [30]): 11.45%
AUC (Rattus norvegicus [31]): 705.9 ng·h/mL
Ratio (Rattus norvegicus [32]): -0.89
t1/2 (Rattus norvegicus [33]): 17.66 h
Ratio (Rattus norvegicus [34]): 1.03

CCOC(=O)Nc1nc(NC(=O)OCC)c2c(ccc3c2ccn3Cc2ccccc2C(F)(F)F)n1
Ratio (Rattus norvegicus [2]): 2.49
Cmax (Rattus norvegicus [3]): 108.7 ng/mL
AUC (Rattus norvegicus [4]): 2856.1 ng·h/mL
Ratio (Rattus norvegicus [6]): 0.84
Cmax (Rattus norvegicus [7]): 59.46 ng/mL
F (Rattus norvegicus [8]): 31.06%
MTD [9]: 1170 µmol/kg
AUC (Rattus norvegicus [10]): 1529.6 ng·h/mL
t1/2 (Rattus norvegicus [11]): 13.29 h
Ratio (Rattus norvegicus [12]): 2.21
Ratio (Rattus norvegicus [13]): 2.42
t1/2 (Rattus norvegicus [14]): 13.59 h
Tmax (Rattus norvegicus [15]): 3.33 h
Ratio (Rattus norvegicus [16]): 0.71
ID50 (Rattus norvegicus [17]): 60.65 µmol/kg
F (Rattus norvegicus [20]): 20.45%
Cmax (Rattus norvegicus [21]): 63.36 ng/mL
Tmax (Rattus norvegicus [22]): 3.83 h
AUC (Rattus norvegicus [24]): 1381.4 ng·h/mL
Activity (Rattus norvegicus [35]): Toxic
Ratio (Rattus norvegicus [27]): 1.88
Tmax (Rattus norvegicus [28]): 3 h
LD50 [36]: 1570 µmol/kg
Ratio (Rattus norvegicus [29]): -0.65
F (Rattus norvegicus [30]): 14.86%
AUC (Rattus norvegicus [31]): 875.5 ng·h/mL
t1/2 (Rattus norvegicus [33]): 16.93 h
